Data from PMC11882969 (Nature Communications, 2025).
Where two headings read alike, the source gives them in different places.

Legend:
CB1 (rCB1) [1] = molecular target: T1, CB1 (rCB1) (Rattus norvegicus, UniProt P20272); test: Single-point radioligand displacement screen; type: binding; details: 10 µM, 1 µM or 300 nM by cell colour (not visible)
hCB1 = hCB1 (Homo sapiens, UniProt P21554); test: bioSensAll ebBRET signaling profiling, hCB1; type: cell-based; set-up: host or cells: HEK293SL cells, transient PEI transfection; details: for Barr2+GRK2 hCB1 response: Barr2+GRK2 biosensor; for Gi1 hCB1 / GoB hCB1: single replicate values, FigS6a; for EC50: hCB1 GoB; for Emax: normalized to CP-55,940
hCB1, sequence (P21554 whole entry): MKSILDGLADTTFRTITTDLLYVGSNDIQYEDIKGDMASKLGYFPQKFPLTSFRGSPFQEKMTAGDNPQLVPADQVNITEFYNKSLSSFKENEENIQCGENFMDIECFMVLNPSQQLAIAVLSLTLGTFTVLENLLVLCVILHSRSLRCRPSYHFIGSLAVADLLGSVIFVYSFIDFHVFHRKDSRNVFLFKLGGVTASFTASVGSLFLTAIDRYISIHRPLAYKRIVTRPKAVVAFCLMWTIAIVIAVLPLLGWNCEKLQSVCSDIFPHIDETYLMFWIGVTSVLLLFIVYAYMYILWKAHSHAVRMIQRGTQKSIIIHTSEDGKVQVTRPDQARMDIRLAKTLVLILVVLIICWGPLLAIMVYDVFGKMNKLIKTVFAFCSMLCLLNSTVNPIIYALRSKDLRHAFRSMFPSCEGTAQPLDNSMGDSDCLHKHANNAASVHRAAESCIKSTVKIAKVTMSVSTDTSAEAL

CB1 (rCB1) [2] = molecular target: T1, CB1 (rCB1); test: Radioligand competition binding, [3H]-CP-55,940, rat brain membranes; details: rCB1

T1 sequence (P20272 whole entry): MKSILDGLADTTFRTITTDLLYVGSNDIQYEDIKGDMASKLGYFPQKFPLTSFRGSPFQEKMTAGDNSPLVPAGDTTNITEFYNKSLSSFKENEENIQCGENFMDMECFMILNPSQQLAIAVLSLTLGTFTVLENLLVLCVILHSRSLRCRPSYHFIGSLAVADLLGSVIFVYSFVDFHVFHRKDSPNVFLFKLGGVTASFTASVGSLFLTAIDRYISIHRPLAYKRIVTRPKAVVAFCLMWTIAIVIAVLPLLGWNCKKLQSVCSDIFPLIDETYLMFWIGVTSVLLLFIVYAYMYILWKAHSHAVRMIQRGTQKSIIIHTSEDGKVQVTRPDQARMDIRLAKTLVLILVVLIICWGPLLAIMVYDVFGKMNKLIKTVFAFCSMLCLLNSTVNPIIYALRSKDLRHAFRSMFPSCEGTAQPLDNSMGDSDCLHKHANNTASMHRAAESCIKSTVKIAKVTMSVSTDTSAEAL

Cn1nc(-c2nnc(C(C)(C)Oc3ccc(C(F)(F)F)cc3)o2)c2ccccc2c1=O [‘2153]
% 1H-CP-55,940 displacement (mean) from single point screen (CB1 (rCB1) [1]): 89.82% | Barr2+GRK2 hCB1 response (hCB1; Log [Compound] (M) -4.22186): 52.3115 | Barr2+GRK2 hCB1 response (hCB1; Log [Compound] (M) -4.63927): 1.898 | Barr2+GRK2 hCB1 response (hCB1; Log [Compound] (M) -5.05788): -31.9237 | Barr2+GRK2 hCB1 response (hCB1; Log [Compound] (M) -5.47381): -49.7918 | Barr2+GRK2 hCB1 response (hCB1; Log [Compound] (M) -5.89285): -32.2428 | Barr2+GRK2 hCB1 response (hCB1; Log [Compound] (M) -6.31878): -30.3284 | Barr2+GRK2 hCB1 response (hCB1; Log [Compound] (M) -6.72585): -23.6278 | Barr2+GRK2 hCB1 response (hCB1; Log [Compound] (M) -7.14267): -46.282 | Barr2+GRK2 hCB1 response (hCB1; Log [Compound] (M) -7.55284): -43.4104 | Barr2+GRK2 hCB1 response (hCB1; Log [Compound] (M) -8): -60.3212 | Barr2+GRK2 hCB1 response (hCB1; Log [Compound] (M) -8.22186): 12.7465 | Barr2+GRK2 hCB1 response (hCB1; Log [Compound] (M) -8.39794): -37.9861 | Barr2+GRK2 hCB1 response (hCB1; Log [Compound] (M) -8.68787): -0.01644 | Barr2+GRK2 hCB1 response (hCB1; Log [Compound] (M) -9.15521): -27.1376 | Barr2+GRK2 hCB1 response (hCB1; Log [Compound] (M) -9.61989): -19.4799 | Barr2+GRK2 hCB1 response (hCB1; Log [Compound] (M) -10.0969): -46.6011 | Barr2+GRK2 hCB1 response (hCB1; Log [Compound] (M) -10.5529): -22.3515 | Barr2+GRK2 hCB1 response (hCB1; Log [Compound] (M) -11.0177): -18.8417 | Barr2+GRK2 hCB1 response (hCB1; Log [Compound] (M) -11.4949): -32.5619 | Barr2+GRK2 hCB1 response (hCB1; Log [Compound] (M) -11.9208): -20.4371 | Barr2+GRK2 hCB1 response (hCB1; Log [Compound] (M) -12.3979): -30.0093 | Barr2+GRK2 hCB1 response (hCB1; Log [Compound] (M) -12.8861): -33.2 | Barr2+GRK2 hCB1 response (hCB1; Log [Compound] (M) -13.3979): 30.2955 | Gi1 hCB1 (hCB1; Log [Compound] (M) -4.22186): 75.7197 | GoB hCB1 (hCB1; Log [Compound] (M) -4.22186): 87.0618 | Gi1 hCB1 (hCB1; Log [Compound] (M) -4.63927): 62.7492 | GoB hCB1 (hCB1; Log [Compound] (M) -4.63927): 68.3981 | Gi1 hCB1 (hCB1; Log [Compound] (M) -5.05788): 53.1046 | GoB hCB1 (hCB1; Log [Compound] (M) -5.05788): 59.4743 | Gi1 hCB1 (hCB1; Log [Compound] (M) -5.47381): 46.6906 | GoB hCB1 (hCB1; Log [Compound] (M) -5.47381): 51.6096 | Gi1 hCB1 (hCB1; Log [Compound] (M) -5.89285): 39.3106 | GoB hCB1 (hCB1; Log [Compound] (M) -5.89285): 42.3906 | Gi1 hCB1 (hCB1; Log [Compound] (M) -6.31878): 39.2789 | GoB hCB1 (hCB1; Log [Compound] (M) -6.31878): 35.0814 | Gi1 hCB1 (hCB1; Log [Compound] (M) -6.72585): 25.5166 | GoB hCB1 (hCB1; Log [Compound] (M) -6.72585): 29.2133 | Gi1 hCB1 (hCB1; Log [Compound] (M) -7.14267): 15.7294 | GoB hCB1 (hCB1; Log [Compound] (M) -7.14267): 18.1713 | Gi1 hCB1 (hCB1; Log [Compound] (M) -7.55284): 6.592 | GoB hCB1 (hCB1; Log [Compound] (M) -7.55284): 8.536 | Gi1 hCB1 (hCB1; Log [Compound] (M) -8): 0.6052 | GoB hCB1 (hCB1; Log [Compound] (M) -8): 0.9487 | Gi1 hCB1 (hCB1; Log [Compound] (M) -8.22186): 7.605 | GoB hCB1 (hCB1; Log [Compound] (M) -8.22186): 6.383 | Gi1 hCB1 (hCB1; Log [Compound] (M) -8.39794): -1.77 | GoB hCB1 (hCB1; Log [Compound] (M) -8.39794): -8.426 | Gi1 hCB1 (hCB1; Log [Compound] (M) -8.68787): -5.112 | GoB hCB1 (hCB1; Log [Compound] (M) -8.68787): -5.249 | Gi1 hCB1 (hCB1; Log [Compound] (M) -9.15521): -4.764 | GoB hCB1 (hCB1; Log [Compound] (M) -9.15521): -4.208 | Gi1 hCB1 (hCB1; Log [Compound] (M) -9.61989): -4.051 | GoB hCB1 (hCB1; Log [Compound] (M) -9.61989): -5.197 | Gi1 hCB1 (hCB1; Log [Compound] (M) -10.0969): -5.445 | GoB hCB1 (hCB1; Log [Compound] (M) -10.0969): -5.371 | Gi1 hCB1 (hCB1; Log [Compound] (M) -10.5529): -5.27 | GoB hCB1 (hCB1; Log [Compound] (M) -10.5529): -5.926 | Gi1 hCB1 (hCB1; Log [Compound] (M) -11.0177): -5.413 | GoB hCB1 (hCB1; Log [Compound] (M) -11.0177): -5.284 | Gi1 hCB1 (hCB1; Log [Compound] (M) -11.4949): -5.698 | GoB hCB1 (hCB1; Log [Compound] (M) -11.4949): -6.413 | Gi1 hCB1 (hCB1; Log [Compound] (M) -11.9208): -5.872 | GoB hCB1 (hCB1; Log [Compound] (M) -11.9208): -5.041 | Gi1 hCB1 (hCB1; Log [Compound] (M) -12.3979): -4.415 | GoB hCB1 (hCB1; Log [Compound] (M) -12.3979): -7.09 | Gi1 hCB1 (hCB1; Log [Compound] (M) -12.8861): -6.854 | GoB hCB1 (hCB1; Log [Compound] (M) -12.8861): -5.666 | Gi1 hCB1 (hCB1; Log [Compound] (M) -13): -4.779 | GoB hCB1 (hCB1; Log [Compound] (M) -13): -5.6139 | Gi1 hCB1 (hCB1; Log [Compound] (M) cell empty): -2.087 | GoB hCB1 (hCB1; Log [Compound] (M) cell empty): -1.829 | pEC50 [95% CI] (hCB1; hCB1 Gi1): 6.0 [5.2 – 6.4] | EC50 (hCB1): 2000 nM | EC50 (hCB1; read-out: EC50 [95% CI]): 2060 nM | Emax (hCB1; read-out: Emax [95% CI], hCB1 Gi1): 89% | Emax (hCB1; read-out: Emax [95% CI], hCB1 GoB): 109% | pKi [95% CI] (CB1 (rCB1) [2]): 6.79 [6.5 – 7.0]
